Measured values from patent US20090264342A1, “COMPOSITIONS AND METHODS FOR ANTIBIOTIC POTENTIATION AND DRUG DISCOVERY” (priority 2006, published 2009).

Key:
E. Coli RecA protein = molecular target: T1, E. Coli RecA protein (Escherichia coli, UniProt P0A7G6); assay: RecA ATPase activity, in vitro luciferase assay; format: biochemical; conditions: luciferase assay screen, FIG. 14
T1 construct: purchased New England Biolabs
Experimental: The assay measures the amount of ATPase (adenosine triphosphate (ATP)-adenosine diphosphate (ADP)) activity catalyzed by E. Coli RecA protein. In the assay, recA is incubated in reaction buffer with DNA, ATP and compounds of interest for a measured amount of time. The quantity of ATP remaining after the RecA reaction is quantitated using a subsequent luciferase assay. […] Details of the assay are provided below.
Materials. Kingase glo plus, adenosine triphosphate (ATP), Adenosine 5′-O-(3-thiotriphosphate), and 384 well plates, white were obtained from Fisher; and M13 mp18 Single-stranded DNA, RecA Protein and T4 Polynucleotide Kinase Reaction Buffer=PNK were obtained from New England Biolabs. PNK contained 70 mM Tris-CL pH 7.5, 10 mM MgCl2 and 5 mM DTT.
Assay Procedure. Final reaction mixture contains: 0.5 μL of M13 single stranded DNA (250 μg/mL); 1.0 μL of 10×PHK buffer; 0.25 μL of RecA (2 mg/mL); 0.25 μL of 1 mM ATP; 0.25 μL of test compound in DMSO; and […] of H2O.
Test compounds are incubated at room temperature in the presence of RecA protein and DNA prior to addition of ATP. This can be achieved by the preparation of two mixes, as indicated below. Desirably, both a no-DNA and a DNA/DMSO-only (i.e., no test compound) control were included.
The following steps are then performed: (1) Add 7.75 μL of mix 1 to the well of a 384 well plate; (2) Add 0.5 μL of the compound of interest; (3) Incubate at room temperature for 5 minutes; (4) Add 2.5 μL of the ATP mix. Incubate at room temperature for 30 minutes; (5) Add 12.5 μL of Promega Kinase glo plus; (6) Incubate at room temperature for 10 minutes or more; and (7) Measure luminescence of the reaction.
Tested compounds were obtained from Boston University (1205 compounds from CMLD diversity library, available from Dr. Scott Schauss), IndoFine (66 compounds based on flavone structure), ChemdiV (48 compounds known to be ATPase inhibitors and 720 compounds structurally related to CB101 (described, for example, in U.S. Ser. No. 60/662,038), and Asinex. Five (5) tested compounds were bisfiavones and 28 were predicted, based on structural modeling (see, for example, Example 31) to dock with Rec A. Many of the compounds are lipophilic, natural-product-like compounds. Others are flavones, bisflavones, flavonoids, coumarins, and/or heterocyclic compounds.
Percent inhibition is calculated according to the following equation: […]

wild type E. coli = assay: Growth of wild type E. coli in the presence of quinolone (OD600); format: cell-based; conditions: 0.1 μg/mL of Cipro (sublethal concentration)
Source text: Each deletion strain was constructed by replacing the chromosomal copy of the relevant gene in a wild type E. coli strain (K-12) with a selectable antibiotic resistance gene, essentially as described, to create a precise gene deletion (Datsenko, K. A. and Wanner, B. L., “One-step inactivation of chromosomal genes in Escherichia coli K-12 using PCR products”, Proc Natl Acad Sci USA, 97, 6640-6645, […]); Baba, T., Ara, T., Okumura, Y., iki Hasegawa, M., Takai, Y., Baba, M., Oshima, T., Tomita, M., Wanner, B. and Mori, H. (2003) Systematic construction of single gene deletion mutants in Escherichia coli K-12 (in preparation) and see also the web site at ecoli.aist-nara.ac.jp/gb5/Resources/deletion/deletion.html).
For each mutant, the ratio of growth of the mutant in the presence of a sublethal concentration of quinolone to growth of the mutant in the absence of quinolone was calculated after 12 hours of growth at 37° C., based on OD600 measurements. […]

S. aureus cells = assay: Mutation/resistance assay, resistance to ciprofloxacin; format: cell-based; conditions: 4×MIC ciprofloxacin with (+) or without (−) 25 μg/mL hinokiflavone
Experimental: This assay measures the rate at which mutant cells arise in the presence of an antibiotic agent. Cells are grown in the presence of antibiotic agent at a concentration above (generally well above, e.g., 4× or 8×) its MIC, and further in the presence or absence of a test agent (that may inhibit or enhance mutation).
Every 24 hours, an aliquot is removed from the culture and is diluted so that the antibiotic agent is no longer present at a concentration above its MIC (e.g., so that the antibiotic agent is present at 0.5×MIC or less). These aliquoted samples are then assayed to determine whether they can grow in the presence of the antibiotic agent. Specifically, when growth is observed in the presence of antibiotic agent at a concentration that is 4×MIC, then resistance is said to have developed. Test compounds can therefore be assayed to assess whether or not they can reduce the incidence of resistance (e.g., by inhibiting mutation).
These aliquoted samples were then assayed to determine whether they can grow in the presence of ciprofloxacin. […]

[1] = tested on: wild-type strain of S. aureus; assay: Hydroxyl radical formation (HPF dye, flow cytometry) in S. aureus; format: cell-based
Experimental: For work with S. aureus, a Staphylococcus aureus subspecies aureus Rosenback strain was used that was obtained from ATCC (29740).
(§1) Growth Conditions. In the experiments, the growth and survival of untreated exponential phase E. coli, or S. aureus, were compared to cultured treated with antibiotics at the above concentrations. E. coli cultures were treated with norfloxacin, kanamycin, ampicillin, rifamycin SV, chloramphenical, tetracycline, erythromycin, or spectinomycin, where appropriate, S. aureus cultures were treated with norfloxacin, vancomycin or chloramphenical, where appropriate.
(§2) Hydroxyl radical and DNA damage sensor experiments using the flow cytometer. To monitor the occurrence of DNA damage, the engineered DNA damage sensor was used, which responds to auto-cleavage of LexA by activating expression of gfpmut3b. All the drug treatments and the no-drug controls were collected with both the kanamycin- and ampicillin-resistant version of the plasmid, with the exception of the ampicillin treatment (kanamycin plasmid only) and the kanamycin treatment (ampicillin plasmid only). All data were collected using a Becton Dickinson FACSCalibur flow cytometer (Becton Dickinson, San Jose, Calif.) with a 488-nm argon laser and a 515- to 545-nm emission filter (FL1) at low flow rate. The following PMT voltage settings were used: E00 (FSC), 360 (SSC) and 700 (FL1). To detect hydroxyl radical formation, the fluorescent reporter dye, 3′-(p-hydroxyphenyl) fluorescein (HPF, Invitrogen, Carlsbad, Calif.) was used at a concentration of 5 μM (1:1000) dilution), which is oxidized by hydroxyl radicals with high specificity. The following PMT voltage settings were used: E00 (FSC), 360 (SSC) and 825 (FL 1). Calibrite beads (Becton Dickinson) were used for instrument calibration.

E. coli MG1655 = assay: Hydroxyl radical formation (HPF dye, flow cytometry) in E. coli; format: cell-based; conditions: E. coli; 250 ng/mL norfloxacin, 5 μg/mL ampicillin, 5 μg/mL kanamycin; bacteriostatic drugs; 3 hours after addition
Experimental: as §1, §2
Flow data were processed and analyzed with MATLAB (MathWorks, Natick, Mass.) to construct figures. At least 50,000 cells were collected for each sample. In all experiments, cells were grown as described above. Samples were taken immediately before addition of drug (time zero), then every hour for 3 hours. At each timepoint, approximately […] were collected, washed once and resuspended in filtered 1×PBS, pH 7.2 (Fisher Scientific), and fluorescence was measured on the flow cytometer.
In the present study, the Applicants chose to investigate whether hydroxyl radical formation also contributes to antibiotic-induced cell death in bacteria. Using the dye hydroxyphenyl fluorescein, HPF, which is oxidized by hydroxyl radicals with high specificity, hydroxyl radical formation was first observed over a range of hydrogen peroxide concentrations known to induce hydroxyl radicals through the reduction of hydrogen peroxide by ferrous iron. In this manner, it was possible to establish the scale of hydroxyl radical formation detectable using this dye via flow cytometry.

E. coli H+ATPase = E. coli H+ATPase (Escherichia coli, UniProt P0AB98+P68699); conditions: cited from earlier work

T1 sequence (P0A7G6 2-353): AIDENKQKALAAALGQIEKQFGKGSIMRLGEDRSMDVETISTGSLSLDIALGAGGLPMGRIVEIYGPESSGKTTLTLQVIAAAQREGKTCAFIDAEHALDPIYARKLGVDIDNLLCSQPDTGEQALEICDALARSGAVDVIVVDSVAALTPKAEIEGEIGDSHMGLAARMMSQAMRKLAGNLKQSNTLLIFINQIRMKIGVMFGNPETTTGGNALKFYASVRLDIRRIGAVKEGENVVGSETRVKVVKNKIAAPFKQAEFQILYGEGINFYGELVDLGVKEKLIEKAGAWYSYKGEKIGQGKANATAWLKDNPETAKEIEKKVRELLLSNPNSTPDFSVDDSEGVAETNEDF

## O=c1c(O)c(-c2ccc(O)cc2)oc2cc(O)ccc12 [3,7,4′-trihydroxyflavone]
E. Coli RecA protein
  activity as inhibitor of RecA ATPase (in words): particularly active

## O=c1cc(-c2ccc(O)cc2)oc2cc(O)c(O)c(O)c12 [6-hydroxy-apigenin]
E. Coli RecA protein
  activity as inhibitor of RecA ATPase (in words): particularly active

## O=C(O)c1cn(C2CC2)c2cc(N3CCNCC3)c(F)cc2c1=O [Cipro, ciprofloxacin]
Wild type E. coli
  growth of wild type E. coli in the presence of Cipro: able to grow
S. aureus cells; culture grown 0 days
  Number of Wells in which Growth Observed in Presence of Ciprofloxacin at 4x MIC: 0
S. aureus cells; culture grown 1 day
  Number of Wells in which Growth Observed in Presence of Ciprofloxacin at 4x MIC: 1
S. aureus cells; culture grown 5 days
  Number of Wells in which Growth Observed in Presence of Ciprofloxacin at 4x MIC: 2
S. aureus cells; culture grown 6 days
  Number of Wells in which Growth Observed in Presence of Ciprofloxacin at 4x MIC: 2
S. aureus cells; culture grown 7 days
  Number of Wells in which Growth Observed in Presence of Ciprofloxacin at 4x MIC: 3
S. aureus cells; culture grown 10 days
  Number of Wells in which Growth Observed in Presence of Ciprofloxacin at 4x MIC: 11

## O=c1cc(-c2ccc(O)cc2)oc2cc(O[C@@H]3O[C@H](CO)[C@@H](O)[C@H](O)[C@H]3O)cc(O)c12 [apigenin-7-O-glucoside]
E. Coli RecA protein
  activity as inhibitor of RecA ATPase (in words): particularly active

## O=c1cc(-c2ccc(O)cc2)oc2cc(O)cc(O)c12 [apigenin]
E. Coli RecA protein
  activity as inhibitor of RecA ATPase (in words): particularly active

## O=C(N[C@H](CO)[C@H](O)c1ccc([N+](=O)[O-])cc1)C(Cl)Cl [chloramphenicol]
[1]; norfloxacin, chloramphenical
  hydroxyl radical formation: hydroxyl formation was not observed
E. coli MG1655
  hydroxyl radical formation: did not stimulate hydroxyl radical production

## CC[C@H]1OC(=O)[C@H](C)[C@@H](O[C@H]2C[C@@](C)(OC)[C@@H](O)[C@H](C)O2)[C@H](C)[C@@H](O[C@@H]2O[C@H](C)C[C@H](N(C)C)[C@H]2O)[C@](C)(O)C[C@@H](C)C(=O)[C@H](C)[C@@H](O)[C@]1(C)O [erythromycin]
E. coli MG1655
  hydroxyl radical formation: did not stimulate hydroxyl radical production

## O=c1c(O)c(-c2ccc(O)c(O)c2)oc2cc(O)ccc12 [fisetin]
E. Coli RecA protein
  activity as inhibitor of RecA ATPase (in words): particularly active

## COc1cc(-c2oc3cc(O)cc(O)c3c(=O)c2O)ccc1O [isorhamnetin]
E. Coli RecA protein
  activity as inhibitor of RecA ATPase (in words): particularly active

## O=c1c(O)c(-c2ccc(O)cc2)oc2cc(O)cc(O)c12 [kaempferol]
E. Coli RecA protein
  activity as inhibitor of RecA ATPase (in words): particularly active

## O=C(c1ccc(O)c(O)c1)c1c(O)cc(O)cc1O [maclurin]
E. Coli RecA protein
  activity as inhibitor of RecA ATPase (in words): particularly active

## O=c1c(O)c(-c2ccc(O)cc2O)oc2cc(O)cc(O)c12 [morin]
E. Coli RecA protein
  activity as inhibitor of RecA ATPase (in words): particularly active

## CC[C@H]1/C=C/C=C/C[C@@H](C)[C@H](O)[C@@](C)(O)C(=O)[C@@H](C)[C@H](O)[C@@H](C)C(=O)[C@@H](C)[C@H](O)[C@@H](C)/C=C/C(=O)O[C@@H]2[C@H](C)[C@H](CC1)O[C@]1(CC[C@H](C)[C@H](C[C@@H](C)O)O1)[C@H]2C [oligomycin]
E. coli H+ATPase
  inhibition of ATP-driven proton transport and ATP hydrolysis: weakly inhibited

## O=c1c(O)c(-c2ccc(O)c(O)c2)oc2cc(O)c(O)c(O)c12 [quercetagetin]
E. Coli RecA protein
  activity as inhibitor of RecA ATPase (in words): particularly active

## O.O.O=c1c(O)c(-c2ccc(O)c(O)c2)oc2cc(O)cc(O)c12 [quercetin dihydrate]
E. Coli RecA protein
  activity as inhibitor of RecA ATPase (in words): particularly active

## CO[C@H]1/C=C/O[C@@]2(C)Oc3c(C)c([O-])c4c(O)c(cc(O)c4c3C2=O)NC(=O)/C(C)=C\C=C\[C@H](C)[C@H](O)[C@@H](C)[C@@H](O)[C@@H](C)[C@H](OC(C)=O)[C@@H]1C.[Na+] [rifamycin SV]
E. coli MG1655
  hydroxyl radical formation: did not stimulate hydroxyl radical production

## O=c1c(O)cc([C@H]2Oc3cc(O)cc(O)c3C[C@H]2O)cc2c([C@H]3Oc4cc(O)cc(O)c4C[C@H]3O)cc(O)c(O)c12 [theaflavin]
E. Coli RecA protein
  activity as inhibitor of RecA ATPase (in words): particularly active

## CN[C@H](CC(C)C)C(=O)N[C@H]1C(=O)N[C@@H](CC(N)=O)C(=O)N[C@H]2C(=O)N[C@H]3C(=O)N[C@H](C(=O)N[C@H](C(=O)O)c4cc(O)cc(O)c4-c4cc3ccc4O)[C@H](O)c3ccc(c(Cl)c3)Oc3cc2cc(c3O[C@@H]2O[C@H](CO)[C@@H](O)[C@H](O)[C@H]2O[C@H]2C[C@](C)(N)[C@H](O)[C@H](C)O2)Oc2ccc(cc2Cl)[C@H]1O [vancomycin]
[1]; lethal concentration (5 μg/mL)
  hydroxyl radical formation: increase in hydroxyl radical production
[1]; sub-lethal concentration (1 μg/mL)
  hydroxyl radical formation: hydroxyl formation was not observed
